Calls of active or inactive are those of the source. The rule behind the calls is not given here.
These compounds were tested on HL-60 (assay: Antileukemic activity against human leukemia HL60 cells at 20 uM).
Type: functional, cell-based

| SMILES | Activity |
| --- | --- |
| CCCCCCCCCCCCC/C=C/[C@@H](O)[C@@H]1COC(=O)N1C(=O)CC | Active |
| CCCCCCCCCCCCC/C=C/[C@@H](O)[C@@H]1COC(=O)N1C(=O)c1ccccc1 | Active |
| CCCCCCCCCCCCC/C=C/[C@@H](O)[C@@H]1COC(=O)N1C(=O)CCCCCCCCCCCCCCC | inactive |

Reference: ChEMBL document CHEMBL1146141, “Synthesis of constrained ceramide analogs and their potent antileukemic activities” (Bioorg Med Chem Lett, 2006)
